ChEMBL document CHEMBL4219236, “Synthesis of some novel dimethine, bis-dimethine cyanine dyes and octacosamethine cyanine dyes endowed with promising biological potency against (HepG2), (Hela), (MCF-7), (MIA), (SN12C) and (H358) cell lines” (Bioorg Med Chem Lett, 2018)
Values after ≈ are worked out from the molar mass of the structure shown.

How the values were obtained:
Format in all cases: functional, cell-based
HepG2 = experiment: Cytotoxicity against human HepG2 cells assessed as decrease in cell viability after 96 hrs; conditions: HepG2, 96 h
HeLa = experiment: Cytotoxicity against human HeLa cells assessed as decrease in cell viability after 96 hrs
SN12C = experiment: Cytotoxicity against human SN12C cells assessed as decrease in cell viability after 96 hrs
MCF7 = experiment: Cytotoxicity against human MCF7 cells assessed as decrease in cell viability after 96 hrs; conditions: MCF7, 96 h
NCI-H358 = experiment: Cytotoxicity against human NCI-H358 cells assessed as decrease in cell viability after 96 hrs; conditions: NCI-H358, 96 h
MIA PaCa-2 = experiment: Cytotoxicity against human MIAPaCa2 cells assessed as decrease in cell viability after 96 hrs; conditions: MIA PaCa-2, 96 h

Row | Structure (SMILES) | IC50 (HepG2) [µg/mL] | IC50 (HeLa) [µg/mL] | IC50 (SN12C) [µg/mL] | IC50 (MCF7) [µg/mL] | IC50 (NCI-H358) [µg/mL] | IC50 (MIA PaCa-2) [µg/mL]
1 | C1=Cc2cc3cc(/C=C(\c4ccccc4)c4cccc[n+]4C4CCC([n+]5ccccc5/C(=C/c5cc6cc7nc(cc8ccc(cc9nc(cc5[nH]6)C=C9)[nH]8)C=C7)c5ccccc5)CC4)c(cc4nc(cc5ccc(cc1n2)[nH]5)C=C4)[nH]3.[Br-].[Br-] (configuration not stated) | 33 | 35.3 | 31.1 | 45.6 | 49.6 | 45.6
2 | O=CC1=Cc2cc3cc(/C=C(\c4ccccc4)c4cccc[n+]4C4CCC([n+]5ccccc5/C(=C/c5cc6cc7nc(cc8ccc(cc9nc(cc5[nH]6)C=C9)[nH]8)C(C=O)=C7)c5ccccc5)CC4)c(cc4nc(cc5ccc(cc1n2)[nH]5)C=C4)[nH]3.[Br-].[Br-] (configuration not stated) | 21 | 21 | 20 | 16 | 15.2 | 20
3 | C(=C(/c1ccccc1)c1cccc[n+]1C1CCC([n+]2ccccc2/C(=C/c2cc3c4c(c2)CCCN4CCC3)c2ccccc2)CC1)/c1cc2c3c(c1)CCCN3CCC2.[Br-].[Br-] (configuration not stated) | 53.1 | 49.8 | 52.6 | 35.6 | 75.6 | 55.6
4 | O=c1[nH]cc(F)c(=O)[nH]1 [FLUOROURACIL] | – | 3.2 (≈ 24.6 µM) | 6.5 (≈ 50 µM) | – | 6.9 (≈ 53 µM) | 3.5 (≈ 26.9 µM)
5 | O=S(=O)([O-])c1ccccc1/C=C(\c1ccccc1)c1cccc[n+]1C1CCC([n+]2ccccc2/C(=C/c2ccccc2S(=O)(=O)[O-])c2ccccc2)CC1.[Br-].[Br-].[Na+].[Na+] (configuration not stated) | 25.4 | 32.3 | 26.3 | 22.5 | 26.3 | 33.5
6 | C1=Cc2cc3cc(/C=C(\c4ccccc4)c4cccc[n+]4C4CCC([n+]5ccccc5Cc5ccccc5)CC4)c(cc4nc(cc5ccc(cc1n2)[nH]5)C=C4)[nH]3.[Br-].[Br-] (configuration not stated) | 48 | 40.3 | 38.9 | 45.9 | 38.1 | 45.9
7 | O=S(=O)([O-])c1ccccc1/C=C(\c1ccccc1)c1cccc[n+]1C1CCC([n+]2ccccc2Cc2ccccc2)CC1.[Br-].[Br-].[Na+] (configuration not stated) | 32.2 | 39.6 | 25 | 29 | 30 | 50
8 | C(=C(/c1ccccc1)c1cccc[n+]1C1CCC([n+]2ccccc2Cc2ccccc2)CC1)/c1cc2c3c(c1)CCCN3CCC2.[Br-].[Br-] (configuration not stated) | 62.5 | 101 | 86.5 | 96.9 | 36.5 | 101
9 | O=CC1=Cc2cc3cc(/C=C(\c4ccccc4)c4cccc[n+]4C4CCC([n+]5ccccc5Cc5ccccc5)CC4)c(cc4nc(cc5ccc(cc1n2)[nH]5)C=C4)[nH]3.[Br-].[Br-] (configuration not stated) | 25.2 | 23.7 | 20.3 | 19.1 | 23.3 | 29.3
